Assay results taken from patent US20210198277A1, “AMINE-SUBSTITUTED ARYL OR HETEROARYL COMPOUNDS” (Epizyme, Inc., priority 2016, published 2021).
Where a name gives a salt, the structure may show the parent alone.

Target: T1, EHMT2 (Homo sapiens, UniProt Q96KQ7)
T1 construct: host or cells: MDA-MB-231
T1 sequence (Q96KQ7 1-1210): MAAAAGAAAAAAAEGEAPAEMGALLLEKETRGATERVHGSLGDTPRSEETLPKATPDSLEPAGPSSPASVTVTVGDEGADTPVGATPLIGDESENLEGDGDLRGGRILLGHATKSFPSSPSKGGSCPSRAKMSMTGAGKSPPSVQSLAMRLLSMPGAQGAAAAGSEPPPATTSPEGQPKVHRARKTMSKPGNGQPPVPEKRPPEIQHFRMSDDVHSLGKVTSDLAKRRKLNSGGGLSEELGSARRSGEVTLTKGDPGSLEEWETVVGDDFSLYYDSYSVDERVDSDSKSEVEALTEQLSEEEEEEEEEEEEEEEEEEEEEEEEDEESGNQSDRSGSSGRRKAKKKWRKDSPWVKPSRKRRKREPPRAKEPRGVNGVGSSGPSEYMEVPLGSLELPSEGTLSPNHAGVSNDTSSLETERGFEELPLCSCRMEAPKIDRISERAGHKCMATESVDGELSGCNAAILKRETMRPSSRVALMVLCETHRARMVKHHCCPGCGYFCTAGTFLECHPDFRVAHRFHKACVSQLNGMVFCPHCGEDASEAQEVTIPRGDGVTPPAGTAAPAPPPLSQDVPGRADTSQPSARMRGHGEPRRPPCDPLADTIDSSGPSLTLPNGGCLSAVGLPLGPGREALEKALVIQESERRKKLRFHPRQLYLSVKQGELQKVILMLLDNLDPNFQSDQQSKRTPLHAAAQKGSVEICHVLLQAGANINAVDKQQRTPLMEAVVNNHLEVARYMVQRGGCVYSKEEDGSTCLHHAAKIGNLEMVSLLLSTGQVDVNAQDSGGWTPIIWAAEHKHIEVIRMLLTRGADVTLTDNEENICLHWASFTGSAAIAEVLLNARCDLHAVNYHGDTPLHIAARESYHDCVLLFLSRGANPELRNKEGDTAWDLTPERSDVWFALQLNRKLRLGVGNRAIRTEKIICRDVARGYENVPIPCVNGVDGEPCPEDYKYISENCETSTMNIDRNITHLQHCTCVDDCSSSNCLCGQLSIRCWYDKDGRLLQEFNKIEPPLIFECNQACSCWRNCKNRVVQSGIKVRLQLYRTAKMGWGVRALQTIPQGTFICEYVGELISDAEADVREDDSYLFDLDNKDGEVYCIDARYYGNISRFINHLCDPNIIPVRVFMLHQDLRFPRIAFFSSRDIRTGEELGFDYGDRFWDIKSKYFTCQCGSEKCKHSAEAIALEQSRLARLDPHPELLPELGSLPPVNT
Test: MDA-MB-231 H3K9me2 in-cell Western assay (EHMT2 ICW)
Type: cell-based
Conditions: Table II; MDA-MB-231 H3K9me2 in-cell Western; read-out: EHMT2 ICW (IC50 μM)
Description: RPMI/Glutamax medium, Penicillin-Streptomycin, Heat Inactivated Fetal Bovine Serum, and D-PBS were purchased from Life Technologies (Grand Island, N.Y., USA). Odyssey blocking buffer, 800CW goat anti-mouse IgG (H+L) antibody, and Licor Odyssey Infrared Scanner were purchased from Licor Biosciences, Lincoln, Nebr., USA. […] 16% Paraformaldehyde was purchased from Electron Microscopy Sciences, Hatfield, Pa., USA).MDA-MB-231 cells were maintained in complete growth medium (RPMI supplemented with 10% v/v heat inactivated fetal bovine serum) and cultured at 37° C. under 5% CO2. UNC0638 was purchased from Sigma-Aldrich (St. Louis, Mo., USA).
Compound (100 nL) was added directly to 384-well cell plate. MDA-MB-231 cells (ATCC) were seeded in assay medium (RPMI/Glutamax supplemented with 10% v/v heat inactivated fetal bovine serum and 1% Penicillin/Streptomycin, Life Technologies) at a concentration of 3,000 cells per well to a Poly-D-Lysine coated 384-well cell culture plate with 50 μL per well. […] Plates were incubated at room temperature for 30 minutes and then incubated at 37° C., 5% CO2 for additional 48 hours. After the incubation, 50 μL per well of 8% paraformaldehyde (Electron Microscopy Sciences) in PBS was added to the plates and incubated at room temperature for 20 minutes. […] Next, 60 μL per well of Odyssey blocking buffer (Licor Biosciences) was added to each plate and incubated for 1 hour at room temperature. Blocking buffer was removed and 20 μL of monoclonal primary antibody α-H3K9me2 (Abcam) diluted 1:800 in Odyssey buffer with 0.1% Tween 20 (v/v) were added and plates were incubated overnight (16 hours) at 4° C. Plates were washed 5 times with 100 μL per well of wash buffer. Next 20 μL per well of secondary antibody was added (1:500 800CW donkey anti-mouse IgG (H+L) antibody (Licor Biosciences), 1:1000 DRAQ5 (Cell Signaling Technology) in Odyssey buffer with 0.1% Tween 20 (v/v)) and incubated for 1 hour at room temperature. The plates were washed 5 times with 100 μL per well wash buffer then 2 times with 100 μL per well of water. Plates were allowed to dry at room temperature then imaged on a Licor Odyssey Infrared Scanner (Licor Biosciences) which measured integrated intensity at 700 nm and 800 nm wavelengths. Both 700 and 800 channels were scanned.
First, the ratio for each well was determined by:
The average of the ratio values for each well was calculated and used to determine the percent inhibition for each test well in the plate. Control compound was serially diluted three-fold in DMSO for a total of 10 test concentrations beginning at 1 μM. Percent inhibition was calculated as: […]
IC50 curves were generated using triplicate wells per concentration of compound. […] IC50 values were calculated using a non-linear regression (variable slope-four parameter fit model) with by the following formula: […]

| Structure (SMILES) | IC50 [µM] |
| --- | --- |
| COc1ccc(Nc2ccnc(NCC3CCNCC3)n2)cc1OCCCN1CCCC1 [Compound 7, 4-N-[4-methoxy-3-[3-(pyrrolidin-1-yl)propoxy]phenyl]-2-N-(piperidin-4-ylmethyl)pyrimidine-2,4-diamine hydrochloride] | 1 to 10 |
| CC(=O)N1CCC(CNc2ccnc(Nc3ccc(Cl)c(OCCCN4CCCC4)c3)n2)CC1 [Compound 8, 1-(4-(((2-((4-chloro-3-(3-(pyrrolidin-1-yl)propoxy)phenyl)amino)pyrimidin-4-yl)amino)methyl)piperidin-1-yl)ethan-1-one] | 1 to 10 |
| CNC(=O)c1cnc(Nc2ccc(OC)c(OCCCN3CCCC3)c2)nc1 [Compound 9, 2-((4-methoxy-3-(3-(pyrrolidin-1-yl)propoxy)phenyl)amino)-N-methylpyrimidine-5-carboxamide] | > 10 |
| COc1ccc(Nc2cc(NCC3CCNCC3)ccn2)cc1OCCCN1CCCC1 [Compound 10, N^2-(4-methoxy-3-(3-(pyrrolidin-1-yl)propoxy)phenyl)-N^4-(piperidin-4-ylmethyl)pyridine-2,4-diamine] | > 10 |
| COc1cnc(Nc2ccnc(CNC3CCOCC3)c2)cc1OCCCN1CCCC1 [Compound 12, 5-methoxy-4-(3-(pyrrolidin-1-yl)propoxy)-N-(2-(((tetrahydro-2H-pyran-4-yl)amino)methyl)pyridin-4-yl)pyridin-2-amine] | > 10 |
| COc1ccc(Nc2ccnc(N(C)CC3CCN(C(C)=O)CC3)c2)cc1OCCCN1CCCC1 [Compound 13, 1-(4-(((4-((4-methoxy-3-(3-(pyrrolidin-1-yl)propoxy)phenyl)amino)pyridin-2-yl)(methyl)amino)methyl)piperidin-1-yl)ethan-1-one] | > 10 |
| COc1ccc(Nc2nccc(OCC3CCN(C(C)=O)CC3)n2)cc1OCCCN1CCCC1 [Compound 14, 1-(4-(((2-((4-methoxy-3-(3-(pyrrolidin-1-yl)propoxy)phenyl)amino)pyrimidin-4-yl)oxy)methyl)piperidin-1-yl)ethan-1-one] | > 10 |
| COc1ccc(Nc2nccc(NCC3CCNCC3)n2)cc1OCC(O)CN1CCCC1 (stereo not drawn) [Compound 15, 1-(2-methoxy-5-((4-((piperidin-4-ylmethyl)amino)pyrimidin-2-yl)amino)phenoxy)-3-(pyrrolidin-1-yl)propan-2-ol] | > 10 |
| COc1ccc(Nc2nc(NCC3CCNCC3)cc(N3CCCC3)n2)cc1OCCCN1CCCC1 [Compound 103] | > 10 |
| COc1ccc(Nc2cc(CNC3CCNCC3)n(C)n2)cc1OCCCN1CCCC1 [Compound 126] | > 10 |
| COc1ccc(Nc2cc(CNC3CCOCC3)n(C)n2)cc1OCCCN1CCCC1 [Compound 127] | > 10 |
| COc1ccc(Nc2nccc(N3CCCN(C(C)=O)CC3)n2)cc1OCCCN1CCCC1 [Compound 138] | > 10 |
| CC(=O)N1CCC(CNc2ccnc(Nc3ccc(C)c(OCCCN4CCCC4)c3)n2)CC1 [Compound 145] | > 10 |
| COc1ccc(Nc2nccc(N(C)CC3CCOCC3)n2)cc1OCCCN1CCCC1 [Compound 146] | 1 to 10 |
| COc1ccc(Nc2nccc(NC3CCS(=O)(=O)CC3)n2)cc1OCCCN1CCCC1 [Compound 152] | > 10 |
| COc1ccc(Nc2nccc(N3CCC(C(N)=O)CC3)n2)cc1OCCCN1CCCC1 [Compound 153] | > 10 |
| COc1ccc(Nc2ccnc(OCC3CCN(C(C)=O)CC3)c2)cc1OCCCN1CCCC1 [Compound 157] | > 10 |

Further lines, results first:

| IC50 [µM] | Structure (SMILES) |
| --- | --- |
| 1 to 10 | COc1ccc(Nc2nccc(NC(C)(C)C)n2)cc1OCCCN1CCCC1 [Compound 6, N^4-(tert-butyl)-N^2-(4-methoxy-3-(3-(pyrrolidin-1-yl)propoxy)phenyl)pyrimidine-2,4-diamine] |
| > 10 | COc1ccc(Nc2nccc(N3CCc4[nH]ncc4C3)n2)cc1OCCCN1CCCC1 [Compound 128] |
| > 10 | COc1ccc(Nc2nccc(-c3c(C)n[nH]c3C)n2)cc1OCCCN1CCCC1 [Compound 129] |
| > 10 | COc1ccc(Nc2nccc(-c3c(C)noc3C)n2)cc1OCCCN1CCCC1 [Compound 130] |
| > 10 | COc1ccc(Nc2nccc(-c3c[nH]nc3C)n2)cc1OCCCN1CCCC1 [Compound 131] |
| > 10 | COc1ccc(Nc2nccc(N3CCN(C)C(=O)C3)n2)cc1OCCCN1CCCC1 [Compound 132] |
| > 10 | COc1ccc(Nc2nccc(N3CCCNC(=O)C3)n2)cc1OCCCN1CCCC1 [Compound 133] |
| > 10 | COc1ccc(Nc2nccc(N3CCc4nc[nH]c(=O)c4C3)n2)cc1OCCCN1CCCC1 [Compound 134] |
| > 10 | COc1ccc(Nc2nccc(N(C)Cc3cccnc3)n2)cc1OCCCN1CCCC1 [Compound 135] |
| > 10 | COc1ccc(Nc2nccc(N(C)Cc3ccccn3)n2)cc1OCCCN1CCCC1 [Compound 136] |
| > 10 | COc1ccc(Nc2nccc(NC3COC3)n2)cc1OCCCN1CCCC1 [Compound 137] |
| > 10 | COc1ccc(Nc2nccc(N3CCN(C(C)=O)CC3)n2)cc1OCCCN1CCCC1 [Compound 139] |
| > 10 | COc1ccc(Nc2nccc(N(C)CCCO)n2)cc1OCCCN1CCCC1 [Compound 140] |
| > 10 | COc1ccc(Nc2nccc(N3CCC(C)(O)CC3)n2)cc1OCCCN1CCCC1 [Compound 141] |
| > 10 | COc1ccc(Nc2nccc(N(C)C3CCOCC3)n2)cc1OCCCN1CCCC1 [Compound 142] |
| > 10 | COCCCN(C)c1ccnc(Nc2ccc(OC)c(OCCCN3CCCC3)c2)n1 [Compound 143] |
| > 10 | COc1ccc(Nc2nccc(CNC(C)=O)n2)cc1OCCCN1CCCC1 [Compound 144] |
| > 10 | COc1ccc(Nc2nccc(N3CCC(C(C)(C)O)CC3)n2)cc1OCCCN1CCCC1 [Compound 147] |
| > 10 | COc1ccc(Nc2nccc(N3CCC(O)CC3)n2)cc1OCCCN1CCCC1 [Compound 148] |
| > 10 | COc1ccc(Nc2nccc(N3CCC(OC)CC3)n2)cc1OCCCN1CCCC1 [Compound 149] |
| > 10 | COc1ccc(Nc2nccc(N(C)CCO)n2)cc1OCCCN1CCCC1 [Compound 150] |
| > 10 | COc1ccc(Nc2nccc(N3CCCOCC3)n2)cc1OCCCN1CCCC1 [Compound 151] |
| > 10 | COc1ccc(Nc2nccc(N3CCNc4ccccc4C3)n2)cc1OCCCN1CCCC1 [Compound 154] |
| > 10 | COc1ccc(Nc2nccc(N3CCc4cn[nH]c4C3)n2)cc1OCCCN1CCCC1 [Compound 155] |
| > 10 | COc1ccc(Nc2nccc(N3CCc4ncncc4C3)n2)cc1OCCCN1CCCC1 [Compound 156] |
